In ChEMBL document CHEMBL3885861, “Open TG-GATES”:

Species: Rattus norvegicus
Test: Open TG-GATES - Regimen: Single
Type: toxicity, organism-based, Sprague-Dawley
Parameters: regimen Single, gender Male, age 6 weeks
Settings: in vivo, po, 30 mg/kg, route gavage, dose level Low; for APTT / Bas / Eos / Fbg / Hb / Ht / Lym / MCH / MCHC / MCV / Mono / Neu / PT / Plat / RBC / Ret / WBC: tissue Blood; for KIDNEY_L / KIDNEY_R / KIDNEY_TOTAL: tissue Kidney; for LIVER: tissue Liver; for A/G / ALP / ALT / AST / BUN / CRE / Ca / Cl / DBIL / GLC / IP / K / LDH / Na / PL / RALB / TBIL / TC / TG / TP / gamma-GTP: tissue Plasma

CCc1oc2ccccc2c1C(=O)c1cc(I)c(O)c(I)c1 [BENZIODARONE]
TERMINAL_BW (3 h): 212.2 g | APTT (3 h): 16.6 s | Bas (3 h): 0% | Eos (3 h): 1% | Fbg (3 h): 202.4 mg/dL | Hb (3 h): 14 g/dL | Ht (3 h): 41.5% | Lym (3 h): 74.4% | MCH (3 h): 21.7 pg | MCHC (3 h): 33.8% | MCV (3 h): 64.3 fL | Mono (3 h): 10% | Neu (3 h): 14.8% | PT (3 h): 12 s | Plat (3 h): 117.6 x10_4/uL | RBC (3 h): 645.8 x10_4/ul | Ret (3 h): 8.1% | WBC (3 h): 97.8 x10_2/uL | KIDNEY_L (3 h): 1 g | KIDNEY_R (3 h): 1 g | KIDNEY_TOTAL (3 h): 2 g | LIVER (3 h): 10 g | A/G (3 h): 2.1 | ALP (3 h): 939.2 IU/L | ALT (3 h): 33.8 IU/L | AST (3 h): 66.6 IU/L | BUN (3 h): 11 mg/dL | CRE (3 h): 0.5 mg/dL | Ca (3 h): 10.6 mg/dL | Cl (3 h): 103.4 meq/L | DBIL (3 h): 0 mg/dL | GLC (3 h): 192.8 mg/dL | IP (3 h): 9.7 mg/dL | K (3 h): 4.4 meq/L | LDH (3 h): 109.6 IU/L | Na (3 h): 141 meq/L | PL (3 h): 131.2 mg/dL | RALB (3 h): 3.7 g/dL | TBIL (3 h): 0.4 mg/dL | TC (3 h): 73 mg/dL | TG (3 h): 56.8 mg/dL | TP (3 h): 5.4 g/dL | gamma-GTP (3 h): 2 IU/L | TERMINAL_BW (6 h): 213.4 g | APTT (6 h): 16.4 s | Bas (6 h): 0% | Eos (6 h): 1% | Fbg (6 h): 218.2 mg/dL | Hb (6 h): 13.7 g/dL | Ht (6 h): 41% | Lym (6 h): 82% | MCH (6 h): 21.9 pg | MCHC (6 h): 33.4% | MCV (6 h): 65.6 fL | Mono (6 h): 7.8% | Neu (6 h): 9.8% | PT (6 h): 12 s | Plat (6 h): 108.5 x10_4/uL | RBC (6 h): 625.4 x10_4/ul | Ret (6 h): 10.8% | WBC (6 h): 102.6 x10_2/uL | KIDNEY_L (6 h): 1 g | KIDNEY_R (6 h): 1 g | KIDNEY_TOTAL (6 h): 1.9 g | LIVER (6 h): 9.8 g | A/G (6 h): 2.2 | ALP (6 h): 728.8 IU/L | ALT (6 h): 31 IU/L | AST (6 h): 65.6 IU/L | BUN (6 h): 11.8 mg/dL | CRE (6 h): 0.5 mg/dL | Ca (6 h): 10.7 mg/dL | Cl (6 h): 105 meq/L | DBIL (6 h): 0.03 mg/dL | GLC (6 h): 183.4 mg/dL | IP (6 h): 9.8 mg/dL | K (6 h): 4.6 meq/L | LDH (6 h): 105.2 IU/L | Na (6 h): 141.6 meq/L | PL (6 h): 130.6 mg/dL | RALB (6 h): 3.7 g/dL | TBIL (6 h): 0.3 mg/dL | TC (6 h): 76.6 mg/dL | TG (6 h): 55.2 mg/dL | TP (6 h): 5.4 g/dL | gamma-GTP (6 h): 1.8 IU/L | TERMINAL_BW (9 h): 210.3 g | APTT (9 h): 17.9 s | Bas (9 h): 0% | Eos (9 h): 1% | Fbg (9 h): 203.2 mg/dL | Hb (9 h): 13.5 g/dL | Ht (9 h): 40.3% | Lym (9 h): 76.8% | MCH (9 h): 21.7 pg | MCHC (9 h): 33.6% | MCV (9 h): 64.5 fL | Mono (9 h): 8% | Neu (9 h): 14.6% | PT (9 h): 12 s | Plat (9 h): 110.8 x10_4/uL | RBC (9 h): 624.8 x10_4/ul | Ret (9 h): 8.2% | WBC (9 h): 78 x10_2/uL | KIDNEY_L (9 h): 0.9 g | KIDNEY_R (9 h): 1 g | KIDNEY_TOTAL (9 h): 1.9 g | LIVER (9 h): 9 g | A/G (9 h): 2.2 | ALP (9 h): 748.4 IU/L | ALT (9 h): 28.8 IU/L | AST (9 h): 58.6 IU/L | BUN (9 h): 11.4 mg/dL | CRE (9 h): 0.4 mg/dL | Ca (9 h): 10.4 mg/dL | Cl (9 h): 105.4 meq/L | DBIL (9 h): 0.086 mg/dL | GLC (9 h): 198 mg/dL | IP (9 h): 10.4 mg/dL | K (9 h): 4.5 meq/L | LDH (9 h): 88.4 IU/L | Na (9 h): 142.8 meq/L | PL (9 h): 129.2 mg/dL | RALB (9 h): 3.7 g/dL | TBIL (9 h): 0.3 mg/dL | TC (9 h): 67.6 mg/dL | TG (9 h): 48.6 mg/dL | TP (9 h): 5.5 g/dL | gamma-GTP (9 h): 0.8 IU/L | TERMINAL_BW (24 h): 226.7 g | APTT (24 h): 17.3 s | Bas (24 h): 0% | Eos (24 h): 1% | Fbg (24 h): 206.6 mg/dL | Hb (24 h): 13.4 g/dL | Ht (24 h): 39.2% | Lym (24 h): 76.4% | MCH (24 h): 22.1 pg | MCHC (24 h): 34.2% | MCV (24 h): 64.8 fL | Mono (24 h): 7.4% | Neu (24 h): 15% | PT (24 h): 11.9 s | Plat (24 h): 117.8 x10_4/uL | RBC (24 h): 605 x10_4/ul | Ret (24 h): 8.1% | WBC (24 h): 94 x10_2/uL | KIDNEY_L (24 h): 1 g | KIDNEY_R (24 h): 1 g | KIDNEY_TOTAL (24 h): 2 g | LIVER (24 h): 11.1 g | A/G (24 h): 2.1 | ALP (24 h): 882.8 IU/L | ALT (24 h): 34.6 IU/L | AST (24 h): 70.8 IU/L | BUN (24 h): 17.4 mg/dL | CRE (24 h): 0.6 mg/dL | Ca (24 h): 10.6 mg/dL | Cl (24 h): 104.6 meq/L | DBIL (24 h): 0.006 mg/dL | GLC (24 h): 197.2 mg/dL | IP (24 h): 7.4 mg/dL | K (24 h): 4.7 meq/L | LDH (24 h): 95.8 IU/L | Na (24 h): 141 meq/L | PL (24 h): 138.2 mg/dL | RALB (24 h): 3.8 g/dL | TBIL (24 h): 0.3 mg/dL | TC (24 h): 73.2 mg/dL | TG (24 h): 81.6 mg/dL | TP (24 h): 5.6 g/dL | gamma-GTP (24 h): 1 IU/L
